Test system: rrAML with an IDH2 mutation
Experiment: Example 5: FoundationOne Heme panel co-mutations versus response to COMPOUND 1 in rrAML patients
Assay type: in vivo, human
Conditions: rrAML
Protocol: FoundationOne Heme panel analysis was performed on 100 screening samples from rrAML patients in the trial described in Example 1. Sample types included peripheral blood and bone marrow.
While rare, co-occurring mutations in TET2 (5 patients) and IDH1 (4 patients) were also observed in this cohort. Mechanistically, mutations in these genes may counteract the efficacy of COMPOUND 1; however, presence of either of these mutated genes was not associated with significant decrease in ORR or complete response (CR) (Table 10).
To further investigate the association between NRAS mutations and ORR to COMPOUND 1, a more detailed analysis of individual mutation sites was performed. NRAS mutations at G12, G13, and Q61 are the most highly characterized sites known to result in constitutive RAS signaling, see Prior I A, Lewis P D, Mattos C. A comprehensive survey of Ras mutations in cancer, Cancer Res. 2012; 72(10):2457-67. When mutations at these sites were analyzed versus ORR to COMPOUND 1, the observed decrease in ORR became statistically significant (p=0.002, see, FIG. 9A and Table 11). Table 11 provides a contingency table indicating statistical significance of lower overall response rate seen in patients presenting with an NRAS co-mutation.

Compound: CC(C)(O)CNc1nc(Nc2ccnc(C(F)(F)F)c2)nc(-c2cccc(C(F)(F)F)n2)n1 [COMPOUND 1, 2-methyl-1-[(4-[6-(trifluoromethyl)pyridin-2-yl]-6-{[2-(trifluoromethyl)pyridin-4-yl]amino}-1,3,5-triazin-2-yl)amino]propan-2-ol]
- CR, OR (co-occurring JAK2 mutation): 0.182
- ORR (co-occurring JAK2 mutation): 0.000
- ORR, OR (co-occurring JAK2 mutation): 0.138
- CR (co-occurring KMT2A mutation): 0.286
- CR, OR (co-occurring KMT2A mutation): 0.662
- ORR (co-occurring KMT2A mutation): 0.357
- ORR, OR (co-occurring KMT2A mutation): 0.703
- CR (co-occurring KRAS mutation): 0.200
- CR, OR (co-occurring KRAS mutation): 0.418
- ORR (co-occurring KRAS mutation): 0.400
- ORR, OR (co-occurring KRAS mutation): 0.864
- CR (co-occurring NPM1 mutation): 0.250
- CR, OR (co-occurring NPM1 mutation): 0.548
- ORR (co-occurring NPM1 mutation): 0.417
- ORR, OR (co-occurring NPM1 mutation): 0.924
- CR (co-occurring NRAS mutation): 0.063
- CR, OR (co-occurring NRAS mutation): 0.099
- ORR (co-occurring NRAS mutation): 0.188
- ORR, OR (co-occurring NRAS mutation): 0.270
- ORR (co-occurring NRAS mutation (text)): 19%
- CR (co-occurring PHF6 mutation): 0.333
- CR, OR (co-occurring PHF6 mutation): 0.850
- ORR (co-occurring PHF6 mutation): 0.500
- ORR, OR (co-occurring PHF6 mutation): 1.314
- CR (co-occurring PTPN11 mutation): 0.000
- CR, OR (co-occurring PTPN11 mutation): 0.148
- ORR (co-occurring PTPN11 mutation): 0.000
- ORR, OR (co-occurring PTPN11 mutation): 0.112
- CR (co-occurring RUNX1 mutation): 0.217
- CR, OR (co-occurring RUNX1 mutation): 0.429
- ORR (co-occurring RUNX1 mutation): 0.261
- ORR, OR (co-occurring RUNX1 mutation): 0.411
- ORR (co-occurring RUNX1 mutation (text)): 26%
- CR (co-occurring SETBP1 mutation): 0.000
- CR, OR (co-occurring SETBP1 mutation): 0.237
- ORR (co-occurring SETBP1 mutation): 0.000
- ORR, OR (co-occurring SETBP1 mutation): 0.180
- CR (co-occurring SF3B1 mutation): 0.000
- CR, OR (co-occurring SF3B1 mutation): 0.237
- ORR (co-occurring SF3B1 mutation): 0.000
- ORR, OR (co-occurring SF3B1 mutation): 0.180
- CR (co-occurring SRSF2 mutation): 0.293
- CR, OR (co-occurring SRSF2 mutation): 0.637
- ORR (co-occurring SRSF2 mutation): 0.341
- ORR, OR (co-occurring SRSF2 mutation): 0.598
- ORR (co-occurring SRSF2 mutation (text)): 34%
- CR (co-occurring STAG2 mutation): 0.455
- CR, OR (co-occurring STAG2 mutation): 1.462
- ORR (co-occurring STAG2 mutation): 0.455
- ORR, OR (co-occurring STAG2 mutation): 1.091
- CR (co-occurring TET2 mutation): 0.333
- CR, OR (co-occurring TET2 mutation): 0.853
- ORR (co-occurring TET2 mutation): 0.333
- ORR, OR (co-occurring TET2 mutation): 0.646
- CR (co-occurring TP53 mutation): 0.000
- CR, OR (co-occurring TP53 mutation): 0.334
- ORR (co-occurring TP53 mutation): 0.000
- ORR, OR (co-occurring TP53 mutation): 0.254
- CR (co-occurring U2AF1 mutation): 0.500
- CR, OR (co-occurring U2AF1 mutation): 1.721
- ORR (co-occurring U2AF1 mutation): 1.000
- ORR, OR (co-occurring U2AF1 mutation): 6.678
- CR (co-occurring WT1 mutation): 0.333
- CR, OR (co-occurring WT1 mutation): 0.853
- ORR (co-occurring WT1 mutation): 0.333
- ORR, OR (co-occurring WT1 mutation): 0.646
